Consider ten molecules from patent US11046680B1, “Heteroaryl-substituted triazoles as APJ receptor agonists” (priority 2016, dated 2021).

For the test, the target named is human APJ receptor (Homo sapiens (Human), UniProt P35414). In words: biochemical. Format: biochemical. The conditions noted are these: [35S]GTPγS binding, CHO membranes expressing human APJ receptor; read-out: Activity hAPJ SPA EC50 IP. The procedure: The human APJ receptor was cloned by polymerase chain reaction and the gene encoding the receptor was subcloned in pFLAG-CMV™-3 expression vector (Sigma, Saint Louis, Mo. USA) in-house at Amgen. A GTPγS binding assay was performed on membranes prepared from CHO cells stably expressing human APJ receptor. The optimum experimental conditions for the concentrations of GDP, MgCl2, and NaCl in the assay buffer were initially determined. […] Incubation was at RT for 90 min and the microplate was read using a ViewLux™ ultra HTS Microplate Imager (PerkinElmer, Inc.).
Sequence of human APJ receptor (P35414 whole entry): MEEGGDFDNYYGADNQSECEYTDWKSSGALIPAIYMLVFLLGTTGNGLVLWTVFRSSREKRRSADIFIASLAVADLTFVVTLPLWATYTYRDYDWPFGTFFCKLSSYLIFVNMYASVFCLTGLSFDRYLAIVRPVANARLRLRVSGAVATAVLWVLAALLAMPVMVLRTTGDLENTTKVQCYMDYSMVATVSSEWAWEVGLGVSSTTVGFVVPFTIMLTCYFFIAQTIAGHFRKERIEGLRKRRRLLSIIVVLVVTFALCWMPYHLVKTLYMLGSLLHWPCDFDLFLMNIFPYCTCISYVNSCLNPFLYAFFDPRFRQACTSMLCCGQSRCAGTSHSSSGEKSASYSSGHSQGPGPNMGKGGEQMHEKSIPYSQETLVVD

What is called EC50 is the concentration at which the effect is half-maximal.

For `COc1cnc([C@@H](C)[C@H](C)S(=O)(=O)Nc2nnc(-c3cnn4c3CCC4)n2-c2c(OC)cccc2OC)cn1` [Example 486.0, (2S,3R)-N-(5-(5,6-dihydro-4H-pyrrolo[1,2-b]pyrazo1-3-yl)-4-(2,6-dimethoxyphenyl)-4H-1,2,4-triazol-3-yl)-3-(5-methoxypyrazin-2-yl)butane-2-sulfonamide], the concentration for a half-maximal effect (EC50) amounted to 0.29 nM. The value for `COc1cccc(OC)c1-n1c(NS(=O)(=O)[C@@H](C)[C@H](C)c2ncc(F)cn2)nnc1-c1cnn(C)c1` [Example 212.0, (2S,3R)-N-(4-(2,6-dimethoxyphenyl)-5-(1-methyl-1H-pyrazol-4-yl)-4H-1,2,4-triazol-3-yl)-3-(5-fluoro-2-pyrimidinyl)-2-butanesulfonamide] was 0.42 nM. For the molecule `COCC1(n2c(NS(=O)(=O)[C@@H](C)[C@H](OC)c3ncc(Cl)cn3)nnc2-c2cnn3ccccc23)CCC1` [Example 508.0], the concentration for a half-maximal effect (EC50) was 62 nM. With `CCOC(=O)c1ccc(OC)c(-n2c(NS(=O)(=O)CCc3ccc(Cl)cc3)nnc2-c2cccs2)c1` [Example 28.0, Ethyl 3-(3-(2-(4-chlorophenyl)ethylsulfonamido)-5-(thiophen-2-yl)-4H-1,2,4-triazol-4-yl)-4-methoxybenzoate], the half-maximal effective concentration (EC50) was 6 nM. The value for `COc1cccc(OC)c1-n1c(NS(=O)(=O)[C@@H](C)[C@H](OC)c2ncc(Cl)cn2)nnc1-c1n[nH]c2ccccc12` [Example 421.0, (1R,2S)-1-(5-chloropyrimidin-2-yl)-N-(4-(2,6-dimethoxyphenyl)-5-(1H-indazol-3-yl)-4H-1,2,4-triazol-3-yl)-1-methoxypropane-2-sulfonamide] was 4.5 nM; that for “(R)-N-(4-(2,6-dimethoxyphenyl)-5-(pyrimidin-5-yl)-4H-1,2,4-triazol-3-yl)-1-(5-fluoropyrimidin-2-yl)propane-2-sulfonamide and (S)-N-(4-(2,6-dimethoxyphenyl)-5-(pyrimidin-5-yl)-4H-1,2,4-triazol-3-yl)-1-(5-fluoropyrimidin-2-yl)propane-2-sulfonamide [Example 48.0]” was 150 nM.

Consider `COc1cccc(OC)c1-n1c(NS(=O)(=O)[C@@H](C)[C@@H](OC(C)C)c2ncc(F)cn2)nnc1-c1cnn2c1CCC2` [Example 482.0, (1S,2S)-N-(5-(5,6-dihydro-4H-pyrrolo[1,2-b]pyrazol-3-yl)-4-(2,6-dimethoxyphenyl)-4H-1,2,4-triazol-3-yl)-1-(5-fluoropyrimidin-2-yl)-1-isopropoxypropane-2-sulfonamide], for which the EC50 turned out to be 0.38 nM. As for `COc1ncnc(OC)c1-n1c(NS(=O)(=O)[C@@H](C)[C@H](C)c2ncc(Cl)cn2)nnc1-c1ccn(C)n1` [Example 294.0, (2S,3R)-3-(5-chloro-2-pyrimidinyl)-N-(4-(4,6-dimethoxy-5-pyrimidinyl)-5-(1-methyl-1H-pyrazol-3-yl)-4H-1,2,4-triazol-3-yl)-2-butanesulfonamide], the figure is 0.49 nM; as for `COc1cnc([C@H](C)[C@@H](C)S(=O)(=O)Nc2nnc(-c3ccn(C)n3)n2-c2c(OC)cccc2OC)nc1` [Example 457.0, (2R,3S)-N-(4-(2,6-dimethoxyphenyl)-5-(1-methyl-1H-pyrazol-3-yl)-4H-1,2,4-triazol-3-yl)-3-(5-methoxy-2-pyrimidinyl)-2-butanesulfonamide], 25 nM; as for `CCn1ccc(-c2nnc(NS(=O)(=O)[C@@H](C)[C@H](OC)c3ncc(C)cn3)n2-c2c(OC)cccc2OC)n1` [Example 387.0, (1R,2S)-N-(4-(2,6-Dimethoxyphenyl)-5-(1-ethyl-1H-pyrazol-3-yl)-4H-1,2,4-triazol-3-yl)-1-methoxy-1-(5-methylpyrimidin-2-yl)propane-2-sulfonamide], 0.55 nM.
